In patent publication US20230321103A1, “COMPOUND FOR INHIBITING MUTANT EGFR AND USE THEREOF” (East China University of Science and Technology, priority 2020, published 2023):

Key:
EGFR (A763_Y764insFHEA) = target: T1, EGFR (A763_Y764insFHEA) (Homo sapiens, UniProt P00533, INS763FHEA); assay: Kinase spectrum evaluation, radiometric 33P-ATP kinase assay; type: biochemical; details: room temperature 2 h, 10 concentration gradients
T1 construct: purchased Reaction Biology Corporation (commissioned test)
T1 sequence (P00533 with tags, fused parts or gaps INS763FHEA limits assumed): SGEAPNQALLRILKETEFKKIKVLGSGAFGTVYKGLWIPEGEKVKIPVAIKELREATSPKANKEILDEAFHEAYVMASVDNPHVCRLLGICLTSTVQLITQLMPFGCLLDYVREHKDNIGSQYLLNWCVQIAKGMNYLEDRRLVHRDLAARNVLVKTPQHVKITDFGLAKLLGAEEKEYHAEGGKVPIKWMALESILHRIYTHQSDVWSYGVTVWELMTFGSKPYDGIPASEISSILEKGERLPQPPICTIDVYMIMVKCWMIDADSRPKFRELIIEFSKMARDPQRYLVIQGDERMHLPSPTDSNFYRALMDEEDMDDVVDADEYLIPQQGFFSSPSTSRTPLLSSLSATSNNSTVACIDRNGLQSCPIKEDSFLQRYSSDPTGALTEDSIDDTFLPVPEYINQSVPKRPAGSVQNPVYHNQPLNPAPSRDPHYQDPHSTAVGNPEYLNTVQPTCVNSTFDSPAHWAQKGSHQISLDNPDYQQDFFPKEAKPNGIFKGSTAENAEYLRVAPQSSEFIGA
Experimental: (§15) The substrate for the kinase reaction was placed in a freshly prepared reaction buffer and the co-factors required for the kinase reaction were added, and the buffer was prepared as: 20 mM HEPES (pH 7.5), 10 mM MgCl2, 1 mM EGTA, 0.02% Brij35, 0.02 mg/mL BSA, 0.1 mM Na3VO4, 2 mM DTT, 1% DMSO; afterwards, the kinase to be tested was added and gently shaken. The compound to be tested was dissolved in DMSO to the desired concentration and added to the above buffer containing the kinase/substrate using an autosampler Echo550. 33P-labeled ATP (33P-ATP at a final concentration of 0.01 μCi/μL) was added to the reaction system to initiate the kinase reaction at room temperature for 2 h. […] Kinase activity data were expressed as a percentage of the remaining kinase activity in the test sample, 10 concentration gradients were measured, a curve was fitted and IC50 values were calculated using Prism4 (GraphPad software).

EGFR (A763_Y764insFQEA) = target: T2, EGFR (A763_Y764insFQEA) (Homo sapiens, UniProt P00533, INS763FQEA); assay: as above; type: biochemical; details: room temperature 2 h, 10 concentration gradients
T2 construct: purchased Reaction Biology Corporation (commissioned test)
T2 sequence (P00533 with tags, fused parts or gaps INS763FQEA limits assumed): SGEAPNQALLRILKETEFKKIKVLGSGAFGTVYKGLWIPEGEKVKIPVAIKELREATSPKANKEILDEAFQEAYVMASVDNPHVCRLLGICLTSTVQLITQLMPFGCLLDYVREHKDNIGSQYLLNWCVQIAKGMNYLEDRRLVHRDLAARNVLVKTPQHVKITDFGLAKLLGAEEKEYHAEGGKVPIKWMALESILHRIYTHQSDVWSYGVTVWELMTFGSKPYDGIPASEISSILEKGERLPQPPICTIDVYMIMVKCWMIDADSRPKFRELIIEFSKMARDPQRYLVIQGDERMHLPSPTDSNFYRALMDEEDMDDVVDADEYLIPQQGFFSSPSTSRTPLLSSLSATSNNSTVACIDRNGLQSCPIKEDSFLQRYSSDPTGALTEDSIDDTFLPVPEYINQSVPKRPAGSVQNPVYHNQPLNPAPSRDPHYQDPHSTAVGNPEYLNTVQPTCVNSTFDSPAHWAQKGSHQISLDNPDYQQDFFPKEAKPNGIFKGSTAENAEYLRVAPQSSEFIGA
Experimental: as §15

EGFR (D761Y) = target: T3, EGFR (D761Y) (Homo sapiens, UniProt P00533, D761Y); assay: as above; type: biochemical; details: room temperature 2 h, 10 concentration gradients
T3 construct: purchased Reaction Biology Corporation (commissioned test)
Experimental: as §15

EGFR (D770_N771insNPG) = target: T4, EGFR (D770_N771insNPG) (Homo sapiens, UniProt P00533, INS770NPG); assay: as above; type: biochemical; details: room temperature 2 h, 10 concentration gradients
T4 construct: purchased Reaction Biology Corporation (commissioned test)
T4 sequence (P00533 with tags, fused parts or gaps INS770NPG limits assumed): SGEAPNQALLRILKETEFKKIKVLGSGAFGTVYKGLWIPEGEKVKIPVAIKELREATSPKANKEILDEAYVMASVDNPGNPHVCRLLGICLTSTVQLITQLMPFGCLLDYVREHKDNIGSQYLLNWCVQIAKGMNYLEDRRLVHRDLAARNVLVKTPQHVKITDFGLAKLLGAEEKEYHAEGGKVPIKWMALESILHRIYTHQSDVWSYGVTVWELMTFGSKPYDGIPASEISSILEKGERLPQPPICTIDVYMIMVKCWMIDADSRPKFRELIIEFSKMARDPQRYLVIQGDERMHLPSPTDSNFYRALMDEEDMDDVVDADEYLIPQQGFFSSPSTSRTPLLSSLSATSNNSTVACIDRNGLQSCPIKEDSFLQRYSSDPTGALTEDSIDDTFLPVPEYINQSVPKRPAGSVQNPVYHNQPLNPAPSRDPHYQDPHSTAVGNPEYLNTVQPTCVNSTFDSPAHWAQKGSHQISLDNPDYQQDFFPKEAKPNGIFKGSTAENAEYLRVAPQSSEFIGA
Experimental: as §15

[1] = target: T5, EGFR (D770_N771insNPG/T790M) (Homo sapiens, UniProt P00533, INS770NPG/T790M); assay: as above; type: biochemical; details: room temperature 2 h, 10 concentration gradients
T5 construct: purchased Reaction Biology Corporation (commissioned test)
T5 sequence (P00533 with tags, fused parts or gaps INS770NPG/T790M limits assumed): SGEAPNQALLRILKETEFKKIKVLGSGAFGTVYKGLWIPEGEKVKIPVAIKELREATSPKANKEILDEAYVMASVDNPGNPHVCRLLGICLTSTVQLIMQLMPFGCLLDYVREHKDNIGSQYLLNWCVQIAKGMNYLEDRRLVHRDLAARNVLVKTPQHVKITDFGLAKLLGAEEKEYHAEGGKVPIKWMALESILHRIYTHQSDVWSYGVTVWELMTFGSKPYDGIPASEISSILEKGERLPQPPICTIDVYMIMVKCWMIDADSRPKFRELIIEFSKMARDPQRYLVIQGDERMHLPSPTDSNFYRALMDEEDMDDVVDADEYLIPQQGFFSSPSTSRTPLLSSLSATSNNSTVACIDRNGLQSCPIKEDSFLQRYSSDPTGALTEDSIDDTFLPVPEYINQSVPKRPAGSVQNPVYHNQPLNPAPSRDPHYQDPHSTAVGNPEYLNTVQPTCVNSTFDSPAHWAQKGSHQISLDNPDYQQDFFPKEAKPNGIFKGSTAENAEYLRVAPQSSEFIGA
Experimental: as §15

EGFR (D770GY) = target: T6, EGFR (D770GY) (Homo sapiens, UniProt P00533, D770Y/INS769G); assay: as above; type: biochemical; details: room temperature 2 h, 10 concentration gradients
T6 construct: purchased Reaction Biology Corporation (commissioned test)
Experimental: as §15

EGFR (G719C) = target: T7, EGFR (G719C) (Homo sapiens, UniProt P00533, G719C); assay: as above; type: biochemical; details: room temperature 2 h, 10 concentration gradients
T7 construct: purchased Reaction Biology Corporation (commissioned test)
Experimental: as §15

EGFR (G719D) = target: T8, EGFR (G719D) (Homo sapiens, UniProt P00533, G719D); assay: as above; type: biochemical; details: room temperature 2 h, 10 concentration gradients
T8 construct: purchased Reaction Biology Corporation (commissioned test)
Experimental: as §15

EGFR (G719S) = target: T9, EGFR (G719S) (Homo sapiens, UniProt P00533, G719S); assay: as above; type: biochemical; details: room temperature 2 h, 10 concentration gradients
T9 construct: purchased Reaction Biology Corporation (commissioned test)
T9 sequence (P00533 25-1210 G719S): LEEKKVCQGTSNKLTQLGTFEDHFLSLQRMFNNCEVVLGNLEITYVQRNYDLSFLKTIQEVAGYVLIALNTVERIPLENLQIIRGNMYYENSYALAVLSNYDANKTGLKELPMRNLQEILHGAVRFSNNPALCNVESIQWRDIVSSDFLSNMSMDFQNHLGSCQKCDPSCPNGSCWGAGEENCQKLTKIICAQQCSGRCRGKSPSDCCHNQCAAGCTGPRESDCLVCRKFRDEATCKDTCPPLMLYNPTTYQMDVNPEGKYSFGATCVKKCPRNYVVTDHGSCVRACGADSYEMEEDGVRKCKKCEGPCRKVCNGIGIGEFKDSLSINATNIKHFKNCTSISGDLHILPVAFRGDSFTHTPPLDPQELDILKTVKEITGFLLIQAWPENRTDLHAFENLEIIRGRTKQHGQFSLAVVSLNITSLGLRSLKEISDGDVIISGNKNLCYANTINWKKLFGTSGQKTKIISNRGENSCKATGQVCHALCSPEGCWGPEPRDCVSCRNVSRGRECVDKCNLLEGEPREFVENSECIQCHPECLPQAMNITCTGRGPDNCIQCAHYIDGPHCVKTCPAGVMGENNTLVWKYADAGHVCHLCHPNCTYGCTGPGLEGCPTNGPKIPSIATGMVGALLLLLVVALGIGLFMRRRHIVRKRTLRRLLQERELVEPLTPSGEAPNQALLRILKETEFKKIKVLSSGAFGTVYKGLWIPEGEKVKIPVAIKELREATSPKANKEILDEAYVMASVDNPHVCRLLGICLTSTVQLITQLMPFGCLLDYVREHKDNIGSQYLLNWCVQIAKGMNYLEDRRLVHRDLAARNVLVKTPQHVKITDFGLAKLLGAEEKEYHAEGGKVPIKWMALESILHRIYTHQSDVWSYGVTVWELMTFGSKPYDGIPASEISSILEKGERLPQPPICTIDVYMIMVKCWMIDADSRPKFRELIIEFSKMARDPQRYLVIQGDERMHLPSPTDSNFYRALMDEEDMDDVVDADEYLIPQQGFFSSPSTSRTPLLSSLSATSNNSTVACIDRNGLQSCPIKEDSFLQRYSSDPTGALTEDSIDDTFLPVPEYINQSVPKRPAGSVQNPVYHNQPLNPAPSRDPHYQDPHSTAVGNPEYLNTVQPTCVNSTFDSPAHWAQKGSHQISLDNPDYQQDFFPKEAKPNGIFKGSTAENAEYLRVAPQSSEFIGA
Experimental: as §15

EGFR (L861Q) = target: T10, EGFR (L861Q) (Homo sapiens, UniProt P00533, L861Q); assay: as above; type: biochemical; details: room temperature 2 h, 10 concentration gradients
T10 construct: purchased Reaction Biology Corporation (commissioned test)
T10 sequence (P00533 25-1210 L861Q): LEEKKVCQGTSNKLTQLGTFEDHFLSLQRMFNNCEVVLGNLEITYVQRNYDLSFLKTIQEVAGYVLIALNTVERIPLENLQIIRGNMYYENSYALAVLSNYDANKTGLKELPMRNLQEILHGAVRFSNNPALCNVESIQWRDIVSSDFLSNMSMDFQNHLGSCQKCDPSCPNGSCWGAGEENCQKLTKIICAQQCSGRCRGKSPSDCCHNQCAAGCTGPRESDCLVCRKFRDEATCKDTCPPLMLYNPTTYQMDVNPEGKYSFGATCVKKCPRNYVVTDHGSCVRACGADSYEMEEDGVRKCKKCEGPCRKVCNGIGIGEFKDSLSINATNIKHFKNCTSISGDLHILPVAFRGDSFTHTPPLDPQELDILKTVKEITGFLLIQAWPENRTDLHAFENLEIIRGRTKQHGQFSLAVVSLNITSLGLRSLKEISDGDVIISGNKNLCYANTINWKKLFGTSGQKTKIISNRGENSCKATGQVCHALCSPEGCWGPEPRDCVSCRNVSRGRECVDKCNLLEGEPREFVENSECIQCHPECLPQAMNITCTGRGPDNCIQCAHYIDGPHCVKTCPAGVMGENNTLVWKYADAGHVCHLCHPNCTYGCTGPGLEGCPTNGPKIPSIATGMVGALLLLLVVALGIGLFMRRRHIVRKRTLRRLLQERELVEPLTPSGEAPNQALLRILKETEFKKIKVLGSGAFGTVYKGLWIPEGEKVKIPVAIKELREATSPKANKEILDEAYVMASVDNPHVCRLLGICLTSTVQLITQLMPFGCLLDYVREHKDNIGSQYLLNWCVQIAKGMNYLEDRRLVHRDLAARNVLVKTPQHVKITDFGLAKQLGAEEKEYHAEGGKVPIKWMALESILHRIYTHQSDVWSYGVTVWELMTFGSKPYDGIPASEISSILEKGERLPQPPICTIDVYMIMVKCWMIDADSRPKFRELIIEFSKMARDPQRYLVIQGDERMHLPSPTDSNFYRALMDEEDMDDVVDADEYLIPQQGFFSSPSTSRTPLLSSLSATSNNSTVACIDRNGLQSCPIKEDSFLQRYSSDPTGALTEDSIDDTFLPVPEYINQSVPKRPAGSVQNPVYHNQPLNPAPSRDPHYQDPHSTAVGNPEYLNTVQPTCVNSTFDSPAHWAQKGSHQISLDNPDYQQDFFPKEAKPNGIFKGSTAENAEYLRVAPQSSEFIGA
Experimental: as §15

ERBB2 (D769Y) = target: T11, ERBB2 (D769Y) (Homo sapiens, UniProt P04626, D769Y); assay: as above; type: biochemical; details: room temperature 2 h, 10 concentration gradients
T11 construct: purchased Reaction Biology Corporation (commissioned test)
Experimental: as §15

ERBB2 (V777_G778insCG) = target: T12, ERBB2 (V777_G778insCG) (Homo sapiens, UniProt P04626, INS777CG); assay: as above; type: biochemical; details: room temperature 2 h, 10 concentration gradients
T12 construct: purchased Reaction Biology Corporation (commissioned test)
T12 sequence (P04626 with tags, fused parts or gaps INS777CG limits assumed): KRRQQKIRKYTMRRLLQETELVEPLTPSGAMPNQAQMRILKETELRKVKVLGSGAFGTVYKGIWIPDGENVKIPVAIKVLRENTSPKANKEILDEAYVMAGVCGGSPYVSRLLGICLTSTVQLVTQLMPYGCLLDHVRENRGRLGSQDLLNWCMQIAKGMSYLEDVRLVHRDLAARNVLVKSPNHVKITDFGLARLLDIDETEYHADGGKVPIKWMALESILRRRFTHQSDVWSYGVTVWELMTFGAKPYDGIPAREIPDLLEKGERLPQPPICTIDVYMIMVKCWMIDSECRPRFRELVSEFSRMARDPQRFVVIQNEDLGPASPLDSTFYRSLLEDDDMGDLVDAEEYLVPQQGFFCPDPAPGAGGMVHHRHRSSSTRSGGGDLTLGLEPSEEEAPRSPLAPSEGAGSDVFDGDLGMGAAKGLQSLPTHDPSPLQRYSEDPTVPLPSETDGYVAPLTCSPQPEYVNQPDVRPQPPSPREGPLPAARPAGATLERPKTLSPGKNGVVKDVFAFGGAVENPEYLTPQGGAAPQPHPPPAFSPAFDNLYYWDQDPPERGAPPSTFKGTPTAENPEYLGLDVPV
Experimental: as §15

ERBB2 (V777L) = target: T13, ERBB2 (V777L) (Homo sapiens, UniProt P04626, V777L); assay: as above; type: biochemical; details: room temperature 2 h, 10 concentration gradients
T13 construct: purchased Reaction Biology Corporation (commissioned test)
Experimental: as §15

[2] = system: EGFR D770_N771insNPG BaF3; assay: Proliferation inhibition assay on stable cell lines (CTG Assay); type: cell-based; details: Mus musculus, 72 hours, CellTiter-Glo
Excerpt: (§1) Ba/F3, a mouse pro-B cell line dependent on interleukin-3, is a common system for studying kinases and kinase inhibitors. Recombinant expression of some protein kinases can make Ba/F3 cells no longer dependent on IL-3 for growth, and based on such properties, the inhibition of a compound on the proliferation of Ba/F3 cells expressing different target kinases can be detected, so as to reflect inhibitory effects of the compound on different kinase targets at the cellular level for kinase inhibitor screening.
(§2) CellTiter-Glo® Luminescent Cell Viability Assay was employed in this experiment to detect cell proliferation, and the specific principles are as follows:
(§3) Adenosine Tri-Phosphate (ATP) is a common energy carrier used in various life activities in nature and is the smallest unit of energy storage and transfer. In the CellTiter-Glo™ Live Cell Assay Kit, […] are used as detectors, which require the participation of ATP to generate light signals. After the CellTiter-Glo™ reagent is added to the cells, the luminescence value is measured. The light signal is proportional to the amount of ATP in the system, which is in turn positively correlated with the number of living cells. Therefore, by measuring the ATP content using the CellTiter-Glo kit, the viability of the cells and thus the level of cell proliferation can be reflected.
(§4) Cells were removed from the liquid nitrogen, quickly thawed in a water bath at 37 degree Celsius, lyophilization tubes were centrifuged at 1000 rpm, the supernatant of the lyophilized solution was discarded, and the cells were resuspended in RPMI1640+10% FBS medium and incubated in a cell culture incubator at 37 degree Celsius with a cell culture density maintaining at 2*10e5 to 2*10e6/ml at all times.
(§5) 1) The compound were serially diluted in DMSO in a compound formulation plate with a starting concentration of 1 or 10 mM and a gradient dilution of 3.
(§6) 2) A new compound formulation plate was prepared, 198 ul of RPMI160+10% FBS medium was added to each well, 2 ul/well of compound from the previous gradient-diluted compound formulation plate was transferred to this plate and mixed well, so that the highest starting compound concentration in this plate was […], and diluted by gradient (this plate was a 10* compound concentration dilution plate).
(§7) 1) Cells in logarithmic growth phase were taken, the supernatant was discarded by centrifugation, and the cells were re-suspended in a fresh RPMI1640 medium at a cell density of 2*10e4/ml.
(§8) 2) The re-suspended cells were inoculated into 2 96-well cell culture plates with white walls and clear bottom at 100 ul of cell suspension/well, and incubated overnight in a 37° C. cell incubator.
(§9) 3) The next day, one of the 96-well plates inoculated with cells were taken, 100 µl/well of cell titer glo assay reagent was added for 60 minutes, the value was read and defined as G0 data.
(§10) 4) Another parallel plate was taken, 11.1 ul/well of compound from the previously diluted 10* compound concentration dilution plate was added to this plate, so that the final concentration of compound in the cell assay plate started from 0.5 or 1 uM, which was 3-fold diluted for 9 concentration gradients. Additional DMSO control wells were set, and incubated in a 37° C. cell incubator for another 72 hours.
(§11) 5) The 96-well plate, in which cells were treated by the compound for 72 hrs, were taken from the incubator, 100 ul/well of cell titer glo assay reagent was added for 60 minutes, the value was read and defined as G3 data.
(§12) 6) The cell proliferation rate corresponding to each well was calculated according to the following formula
(§13) % prolifation=(G3 of the well of the compound to be tested−mean value of G)/(mean value of G3 of the DMSO control well−mean value of G0)*100.
(§14) Y=Bottom+(Top−Bottom)/(1+10^((Log IC50−X)*HillSlope))

[3] = system: EGFR D770_N771insSVD BaF3; assay: as above; type: cell-based; details: Mus musculus, 72 hours, CellTiter-Glo
Excerpt: as §1, §2, §3, §4, §5, §6, §7, §8, §9, §10, §11, §12, §13, §14

EGFR G719A BaF3 = assay: as above; type: cell-based; details: Mus musculus, 72 hours, CellTiter-Glo
Excerpt: as §1, §2, §3, §4, §5, §6, §7, §8, §9, §10, §11, §12, §13, §14

EGFR H773_V774insH BaF3 = assay: as above; type: cell-based; details: Mus musculus, 72 hours, CellTiter-Glo
Excerpt: as §1, §2, §3, §4, §5, §6, §7, §8, §9, §10, §11, §12, §13, §14

EGFR L861Q BaF3 = assay: as above; type: cell-based; details: Mus musculus, 72 hours, CellTiter-Glo
Excerpt: as §1, §2, §3, §4, §5, §6, §7, §8, §9, §10, §11, §12, §13, §14

[4] = system: EGFR V769_D770insASV BaF3; assay: as above; type: cell-based; details: Mus musculus, 72 hours, CellTiter-Glo
Excerpt: as §1, §2, §3, §4, §5, §6, §7, §8, §9, §10, §11, §12, §13, §14

EGFR = target: T14, EGFR (Homo sapiens, UniProt P00533); assay: Kinase spectrum evaluation, radiometric 33P-ATP kinase assay; type: biochemical; details: room temperature 2 h, 10 concentration gradients
T14 construct: purchased Reaction Biology Corporation (commissioned test)
Experimental: as §15

EGFR (d746-750) = target: T15, EGFR (d746-750) (Homo sapiens, UniProt P00533, DEL746-750); assay: as above; type: biochemical; details: room temperature 2 h, 10 concentration gradients
T15 construct: purchased Reaction Biology Corporation (commissioned test)
Experimental: as §15

EGFR (d747-749/A750P) = target: T16, EGFR (d747-749/A750P) (Homo sapiens, UniProt P00533, A750P/DEL747-749); assay: as above; type: biochemical; details: room temperature 2 h, 10 concentration gradients
T16 construct: purchased Reaction Biology Corporation (commissioned test)
Experimental: as §15

EGFR (L858R) = target: T17, EGFR (L858R) (Homo sapiens, UniProt P00533, L858R); assay: as above; type: biochemical; details: room temperature 2 h, 10 concentration gradients
T17 construct: purchased Reaction Biology Corporation (commissioned test)
Experimental: as §15

Row | Compound | IC50 (EGFR (A763_Y764insFHEA)) [pM] | IC50 (EGFR (A763_Y764insFQEA)) [pM] | IC50 (EGFR (D761Y)) [pM] | IC50 (EGFR (D770_N771insNPG)) [pM] | IC50 [1] [pM] | IC50 (EGFR (D770GY)) [pM] | IC50 (EGFR (G719C)) [pM] | IC50 (EGFR (G719D)) [pM] | IC50 (EGFR (G719S)) [pM] | IC50 (EGFR (L861Q)) [pM] | IC50 (ERBB2 (D769Y)) [pM] | IC50 (ERBB2 (V777_G778insCG)) [pM] | IC50 (ERBB2 (V777L)) [pM] | also measured
1 | C=CC(=O)Nc1cccc(-n2c(=O)c(C3CCCCC3)nc3cnc(Nc4ccc(N5CCN(C)CC5)cc4OC)nc32)c1 [compound C] | 940 | 450 | 990 | 3670 | 2470 | 970 | 1790 | 3780 | 2750 | 930 | 4580 | 2760 | 1630 | –
2 | C=CC(=O)Nc1cc(Nc2ncc(C(=O)OC(C)C)c(-c3cn(C)c4ccccc34)n2)c(OC)cc1N(C)CCN(C)C [TAK788, Mobocertinib] | – | – | – | – | – | – | – | – | – | – | – | – | – | GI50 [2]: 1530 pM; GI50 [3]: 4730 pM; GI50 (EGFR G719A BaF3): 4660 pM; GI50 (EGFR H773_V774insH BaF3): 4440 pM; GI50 (EGFR L861Q BaF3): 2550 pM; GI50 [4]: 1490 pM
3 | C=CC(=O)Nc1cccc(-n2c(=O)c(-c3ccccc3)nc3cnc(Nc4ccc(N5CCN(C)CC5)c(OC)c4)nc32)c1 [compound B] | 1560 | 780 | 780 | 1230 | 1890 | 760 | 1040 | 820 | 970 | 1670 | 770 | 1560 | 2050 | –
4 | C=CC(=O)Nc1cccc(-n2c(=O)c(-c3ccc(OC)cc3)nc3cnc(Nc4ccc(N5CCN(C)CC5)cc4OC)nc32)c1 [compound E] | 770 | 2370 | 620 | 1740 | 1580 | 1010 | 1640 | 1640 | 1670 | 880 | 2590 | 3780 | 820 | –
5 | C=CC(=O)Nc1cccc(-n2c(=O)c(-c3ccccc3)nc3cnc(Nc4ccc(N(C)CCN(C)C)cc4OC)nc32)c1 [compound A] | 670 | 350 | 340 | 520 | 670 | 280 | 1090 | 2190 | 1450 | 2050 | 790 | 350 | 780 | –
6 | C=CC(=O)N1CCC(Oc2cc3c(Nc4ccc(Cl)c(Cl)c4F)ncnc3cc2OC)CC1 [Poziotinib] | – | – | – | – | – | – | – | – | – | – | 210 | 90 | 210 | –
7 | C=CC(=O)Nc1cccc(-n2c(=O)c(-c3ccccc3)nc3cnc(Nc4ccc(N5CCN(C)CC5)cc4OC)nc32)c1 [Compound 1] | 400 | 290 | – | 230 | 490 | – | 510 | – | 360 | – | 350 | 220 | 310 | IC50 (EGFR): 80 pM; IC50 (EGFR (d746-750)): 840 pM; IC50 (EGFR (d747-749/A750P)): 290 pM; IC50 (EGFR (L858R)): 170 pM; GI50 [2]: 990 pM; GI50 [3]: 5590 pM; GI50 (EGFR G719A BaF3): 580 pM; GI50 (EGFR H773_V774insH BaF3): 5420 pM; GI50 (EGFR L861Q BaF3): 980 pM; GI50 [4]: 1630 pM
8 | C=CC(=O)Nc1cccc(-n2c(=O)c(-c3ccc(F)cc3)nc3cnc(Nc4ccc(N5CCN(C)CC5)cc4OC)nc32)c1 [compound D] | 570 | 1920 | 450 | 2780 | 990 | 870 | 2410 | 2910 | 3020 | 1040 | 780 | 1960 | 1870 | –
